Among the data in patent US8658791B2, “2-substituted-6-amino-5-alkyl, alkenyl or alkynyl-4-pyrimidinecarboxylic acids and 6-substituted-4-amino-3-alkyl, alkenyl or alkynyl picolinic acids and their use as herbicides” (Dow AgroSciences, LLC, priority 2007, dated 2014) are plant injury and pest or weed control values, retold here.

Common to all, as to type: in vivo
Experiment [1] has as its system rice (Oryza sativa). The experiment is described as follows: General preemergence herbicidal activity, ORYSA. The settings on record: applied to soil surface, visual score after 20-22 days, 0 = no injury, 100 = complete kill or no emergence, read-out: Pre-emergent Weed Control ORYSA; for plant injury at 140 g/ha: 140 g ai/ha. The source says: (§1) Seeds of the desired test plant species were planted in a soil matrix prepared by mixing a loam soil (43 percent silt, 19 percent clay, and 38 percent sand, with a pH of about 8.1 and an organic matter content of about 1.5 percent) and sand in a 70 to 30 ratio. The soil matrix was contained in plastic pots with a surface area of 127 square centimeters. When required to ensure good germination and healthy plants, a fungicide treatment and/or other chemical or physical treatment was applied. A weighed amount, determined by the highest rate to be tested, of each test compound was placed in a 25 mL glass vial and was dissolved in 6 mL of a 97:3 v/v (volume/volume) mixture of acetone and DMSO to obtain concentrated stock solutions. […] The stock solutions obtained were diluted with 18 mL of a 0.1% v/v aqueous solution of Tween® 20 surfactant to obtain spray solutions containing the highest application rate. Additional application rates were obtained by serial dilution of 12 mL of the high rate solution into a solution containing 3 mL of 97:3 v/v mixture of acetone and DMSO and 9 mL of the 0.1% v/v aqueous solution of Tween® 20 surfactant to obtain 1/2X, 1/4X, 1/8X and 1/16X rates of the high rate. Compound requirements are based upon a 12 mL application volume at a rate of 187 L/ha. Formulated compounds were applied to the soil surface with an overhead Mandel track sprayer equipped with a […] nozzles calibrated to deliver 187 L/ha over an application area of 0.503 square meters at a spray height of 18 inches (43 cm) above the soil surface. Control pots were sprayed in the same manner with the solvent blank. The treated pots and control pots were placed in a greenhouse maintained with an approximate 15 hour photoperiod and temperatures of about 23-29° C. during the day and 22-28° C. during the night. Nutrients and water were added on a regular basis and supplemental lighting was provided with overhead metal halide 1000-Watt lamps as necessary. The water was added by top-irrigation. After 20-22 days, the condition of the test plants that germinated and grew as compared with that of the untreated plants that emerged and grew was determined visually and scored on a scale of 0 to 100 percent where 0 corresponds to no injury and 100 corresponds to complete kill or no emergence.

Experiment [2] has as its system rice (Oryza sativa). The experiment is described as follows: General postemergence herbicidal activity, ORYSA. As to conditions: Oryza sativa, post-emergence, 336 h, postemergence spray, visual score after 14 days, 0 = no injury, 100 = complete kill, read-out: Post-emergent Weed Control ORYSA; for plant injury at 280 g/ha: 280 g ai/ha; for plant injury at 70 g/ha: 70 g ai/ha. The gist of the method:
(§2)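 Greenhouse plants at first or second true leaf stage sprayed postemergence at 187 L/ha with compound in acetone/DMSO/water mixture with crop oil concentrate and surfactant. Rates ran from a high rate through 1/2X to 1/16X. Visual injury versus untreated plants scored 0–100% after 14 days.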

In experiment [3] the test system is lambsquarter (Chenopodium album). The experiment is described as follows: General preemergence herbicidal activity, CHEAL. As to conditions: applied to soil surface, visual score after 20-22 days, 0 = no injury, 100 = complete kill or no emergence, read-out: Pre-emergent Weed Control CHEAL; for pest or weed control at 140 g/ha: 140 g ai/ha.
Source text: as §1

Experiment [4] deals with wild poinsettia (Euphorbia heterophylla). The experiment is described as follows: General postemergence herbicidal activity, EPHHL. As to conditions: Euphorbia heterophylla, post-emergence, 336 h, postemergence spray, visual score after 14 days, 0 = no injury, 100 = complete kill, read-out: Post-emergent Weed Control EPHHL; for pest or weed control at 280 g/ha: 280 g ai/ha; for pest or weed control at 70 g/ha: 70 g ai/ha. Summed up: as §2

Experiment [5] shares this test system. Kind of experiment: General preemergence herbicidal activity, EPHHL. As to conditions: applied to soil surface, visual score after 20-22 days, 0 = no injury, 100 = complete kill or no emergence, read-out: Pre-emergent Weed Control EPHHL; for pest or weed control at 140 g/ha: 140 g ai/ha.
Source text: as §1

The subject of experiment [6] is barnyardgrass (Echinochloa crus-galli). Kind of experiment: General preemergence herbicidal activity, ECHCG. As to conditions: applied to soil surface, visual score after 20-22 days, 0 = no injury, 100 = complete kill or no emergence, read-out: Pre-emergent Weed Control ECHCG; for pest or weed control at 140 g/ha: 140 g ai/ha.
Source text: as §1

The subject of experiment [7] is lambsquarter (Chenopodium album). The experiment is described as follows: General postemergence herbicidal activity, CHEAL. As to conditions: Chenopodium album, post-emergence, 336 h, postemergence spray, visual score after 14 days, 0 = no injury, 100 = complete kill, read-out: Post-emergent Weed Control CHEAL; for pest or weed control at 280 g/ha: 280 g ai/ha; for pest or weed control at 70 g/ha: 70 g ai/ha. Summed up: as §2

The test system of experiment [8] is velvetleaf (Abutilon theophrasti). The experiment is described as follows: General postemergence herbicidal activity, ABUTH. As to conditions: Abutilon theophrasti, post-emergence, 336 h, postemergence spray, visual score after 14 days, 0 = no injury, 100 = complete kill, read-out: Post-emergent Weed Control ABUTH; for pest or weed control at 280 g/ha: 280 g ai/ha; for pest or weed control at 70 g/ha: 70 g ai/ha. The gist of the method:
as §2

For experiment [9], the system named is barnyardgrass (Echinochloa crus-galli). The experiment is described as follows: General postemergence herbicidal activity, ECHCG. The settings on record: Echinochloa crus-galli, post-emergence, 336 h, postemergence spray, visual score after 14 days, 0 = no injury, 100 = complete kill, read-out: Post-emergent Weed Control ECHCG; for pest or weed control at 280 g/ha: 280 g ai/ha; for pest or weed control at 70 g/ha: 70 g ai/ha. The gist of the method:
as §2

For experiment [10], the system named is velvetleaf (Abutilon theophrasti). The experiment is described as follows: General preemergence herbicidal activity, ABUTH. The settings on record: applied to soil surface, visual score after 20-22 days, 0 = no injury, 100 = complete kill or no emergence, read-out: Pre-emergent Weed Control ABUTH; for pest or weed control at 140 g/ha: 140 g ai/ha.
Source text: as §1

`CCOC(=O)c1nc(C2CC2)nc(N)c1C` [Compound 1, 6-Amino-2-cyclopropyl-5-methylpyrimidine-4-carboxylic acid ethyl ester]: in the experiment with rice (Oryza sativa) [1], the plant injury at 140 g/ha worked out at 30%. For the same compound, the plant injury at 280 g/ha with rice (Oryza sativa) [2] came out at 0%. The pest or weed control at 140 g/ha came out at 100% in [3], 100% in [5], 80% in [6] and 80% in [10]. Moreover, the pest or weed control at 280 g/ha in experiment [4] turned out to be 100%; in experiment [7], 80%; in experiment [8], 15%; in [9] it was 0%.
On to `C=Cc1c(N)nc(-c2ccc(Cl)c(OC)c2F)nc1C(=O)OC` [Compound 3, 6-Amino-2-(4-chloro-2-fluoro-3-methoxyphenyl)-5-vinylpyrimidine-4-carboxylic acid methyl ester], for which the plant injury at 140 g/ha in the experiment with rice (Oryza sativa) [1] was 30%. For the same compound, the plant injury at 70 g/ha in the experiment on rice (Oryza sativa) [2] came to 15%. For the same compound, the pest or weed control at 140 g/ha in experiment [3] worked out at 100%; in [5], 100%; in experiment [6], 80%; in experiment [10], 80%. Moreover, the pest or weed control at 70 g/ha in experiment [4] worked out at 100%; in experiment [7], 100%; in [8], 100%; in experiment [9], 95%.
In the case of `C=Cc1c(N)nc(-c2ccc(Cl)c(F)c2F)nc1C(=O)OC` [Compound 11, 6-Amino-2-(4-chloro-2,3-difluorophenyl)-5-vinyl-pyrimidine-4-carboxylic acid methyl ester], the plant injury at 70 g/ha was 95% in the experiment with rice (Oryza sativa) [1] (70 g ai/ha) and 0% with rice (Oryza sativa) [2]. Also, the pest or weed control at 70 g/ha in experiment [3] (70 g ai/ha), in experiment [4], in [5] (70 g ai/ha), in experiment [6] (70 g ai/ha), in [7] and in experiment [8] was 100% each time. The pest or weed control at 70 g/ha is 90% in experiment [9] and 100% in experiment [10] (70 g ai/ha).
`CCc1c(N)nc(-c2ccc(Cl)c(OC)c2F)nc1C(=O)OC` [Compound 21, 6-Amino-2-(4-chloro-2-fluoro-3-methoxyphenyl)-5-ethyl-pyrimidine-4-carboxylic acid methyl ester]: the plant injury at 140 g/ha with rice (Oryza sativa) [1] and in the experiment with rice (Oryza sativa) [2] (140 g ai/ha) was 0% in each case. The pest or weed control at 140 g/ha amounted to 40% in experiment [3]; 100% in experiment [4] (140 g ai/ha); 80% in experiment [5]; 0% in experiment [6]; 100% in experiment [7] (140 g ai/ha); 85% in [8] (140 g ai/ha). In addition, the pest or weed control at 140 g/ha stood at 70% in experiment [9] (140 g ai/ha) and 60% in [10].
Consider `C=Cc1c(N)nc(-c2ccc(Cl)cc2)nc1C(=O)O` [Compound 43, 6-Amino-2-(4-chlorophenyl)-5-vinylpyrimidine-4-carboxylic acid], for which, in the experiment on rice (Oryza sativa) [1], the plant injury at 140 g/ha was determined as 90%. Further, in the experiment with rice (Oryza sativa) [2], the plant injury at 280 g/ha is 35%. Further, the pest or weed control at 140 g/ha in [3] is 100%; in experiment [5], 100%; in [6], 90%; in experiment [10], 100%. For the same compound, the pest or weed control at 280 g/ha in experiment [4] amounted to 100%; in [7] it was 100%; in [8] it was 90%; in [9], 90%.
For `C=Cc1c(N)nc(-c2ccc(Cl)c(OC)c2)nc1C(=O)O` [Compound 45, 6-Amino-2-(4-chloro-3-methoxyphenyl)-5-vinylpyrimidine-4-carboxylic acid], the plant injury at 140 g/ha in the experiment on rice (Oryza sativa) [1] turned out to be 30%. In addition, the plant injury at 280 g/ha in the experiment on rice (Oryza sativa) [2] is 0%. For the same compound, the pest or weed control at 140 g/ha in experiment [3] turned out to be 60%; in experiment [5], 0%; in experiment [6], 10%; in [10], 0%. Also, the pest or weed control at 280 g/ha in experiment [4] was 60%; in experiment [7], 95%; in [8], 0%; in experiment [9] it was 60%.
